According to patent US7429238B2, “Systems and methods for the generation of crystalline polymorphs” (priority 2001, dated 2008):

Key:
[1] = room temperature; cited from earlier work
[2] = Differential scanning calorimetry of the new carbamazepine polymorph; format: physicochemical; conditions: scan rate of 10° C./minute
[3] = Infrared of single crystals versus KBr pellets (phase transformation under pressure); format: physicochemical; conditions: KBr pellets produced at 10,000 psi vs infrared microscopy of single crystals
Text: The corresponding peaks in the new polymorph are found at 3474, 3149, 1674, 1394, 773, and 765 cm^−1. […] Significant differences in the IR spectra of two different polymorphs provide a fast, reliable method of polymorph characterization despite the fact that a hydrogen-bonded dimer is observed in the crystal structure of both polymorphs. […] Therefore, it is contemplated that this new form has good shelf life (kinetic trapping of the unstable form).

[4] = rat, in vivo; cited from earlier work
[5] = following a single oral dose, average; cited from earlier work
[6] = cited from earlier work

NC(=O)N1c2ccccc2C=Cc2ccccc21 [trigonal form, carbamazepine]
solid form stability in solvent [1]: undergoes solvent-mediated conversion to the monoclinic crystal

NC(=O)N1c2ccccc2C=Cc2ccccc21 [new polymorph, carbamazepine]
phase transitions by differential scanning calorimetry [2]: absence of phase transitions below 184 °C | phase transformation under pressure [3]: not taking place

NC(=O)N1c2ccccc2C=Cc2ccccc21 [carbamazepine]
long-term toxicity finding [4]: potential carcinogenic risk | elimination half-life of unchanged carbamazepine in the plasma [5]: approximately 36 hours

CC(=O)Nc1ccc(O)cc1 [orthorhombic polymorph, 4-acetamidophenol]
solubility relative to the monoclinic form [6]: more soluble
